Assay results from patent publication US20130183294A1, “METHODS OF USING FGF19 MODULATORS” (GENENTECH, INC., priority 2012, published 2013).

What was measured:
Caco-2 monolayers = test: Caco-2 permeability and taurocholate transport in transwell system; format: cell-based, human; settings: 50 μM, 24 h, p value<0.001
Protocol: The Caco-2 human adenocarcinoma cell line and Eagle's Minimum Essential Medium (EMEM) were purchased from ATCC (American Type Culture Collection, Rockville, Md.). Caco-2 cells were seeded on transwell inserts (0.4 μm pore size, Corning, N.Y.) at a density of 1.5×10^5 cells/mL and cultured for 23 days with media changes 3 times per week. On day 23, the cells were treated with either isotype control antibody (100 μg/mL), FGF19 (gp120, Genentech Inc., CA) (500 ng/mL), anti-FGF19 (100 μg/mL), DCA (Sigma-Aldrich, St. Louis, Mo.) (50 μM) or DCA (50 μM) plus anti-FGF19 (100 μg/mL) for 24 h prior to the permeability experiments. The monolayers were equilibrated for 30 min in transport buffer (HBSS with 10 mM HEPES, pH 7.4) at 37° C. and the transepithelial electrical resistance [TEER cm2), membrane area 1.12 cm^2] of each well was measured using the volt-ohm meter and STX-2 electrode. The permeabilities of lucifer yellow (LY), and taurocholate were evaluated in the apical to basolateral (A-B) direction. […] The apparent permeability for taurocholate, and LY (Papp) was calculated using the following equation: Papp=dQ/dt×1/C0A where dQ/dt is the rate of compound appearance in the receiver compartment, C0 is the concentration in the donor compartment and A is the surface area of the insert. […]

Caco-2 cells = test: Gene expression (qRT-PCR) in intestinal epithelial (Caco-2) cells; format: cell-based, human; settings: 50 μM, 24 h

SMILES: C[C@H](CCC(=O)O)[C@H]1CC[C@H]2[C@@H]3CC[C@@H]4C[C@H](O)CC[C@]4(C)[C@H]3C[C@H](O)[C@]12C [DCA, deoxycholic acid]
- taurocholate uptake, reduction vs. control (Caco-2 monolayers): −80%
- IBABP expression increase (Caco-2 cells; p value<0.0001): > 30 fold
- Ost-α expression increase (Caco-2 cells; p value<0.0015): 2 fold
- Ost-β expression increase (Caco-2 cells; p value<0.05): 1.3 fold
